Reference: publication PMC6540285, “Evaluation of Protein Kinase Inhibitors with PLK4 Cross-Over Potential in a Pre-Clinical Model of Cancer” (International Journal of Molecular Sciences, 2019)
pIC50: −log10 of the molar value. Like-named read-outs stand apart in the source and are kept apart here.

Tests used:
PLK4 = target: T1, PLK4 (Homo sapiens, UniProt O00444); test: LanthaScreen Eu Kinase Binding Assay, 10-point IC50; details: SelectScreen, 10-point titration
T1 sequence (O00444 1-970): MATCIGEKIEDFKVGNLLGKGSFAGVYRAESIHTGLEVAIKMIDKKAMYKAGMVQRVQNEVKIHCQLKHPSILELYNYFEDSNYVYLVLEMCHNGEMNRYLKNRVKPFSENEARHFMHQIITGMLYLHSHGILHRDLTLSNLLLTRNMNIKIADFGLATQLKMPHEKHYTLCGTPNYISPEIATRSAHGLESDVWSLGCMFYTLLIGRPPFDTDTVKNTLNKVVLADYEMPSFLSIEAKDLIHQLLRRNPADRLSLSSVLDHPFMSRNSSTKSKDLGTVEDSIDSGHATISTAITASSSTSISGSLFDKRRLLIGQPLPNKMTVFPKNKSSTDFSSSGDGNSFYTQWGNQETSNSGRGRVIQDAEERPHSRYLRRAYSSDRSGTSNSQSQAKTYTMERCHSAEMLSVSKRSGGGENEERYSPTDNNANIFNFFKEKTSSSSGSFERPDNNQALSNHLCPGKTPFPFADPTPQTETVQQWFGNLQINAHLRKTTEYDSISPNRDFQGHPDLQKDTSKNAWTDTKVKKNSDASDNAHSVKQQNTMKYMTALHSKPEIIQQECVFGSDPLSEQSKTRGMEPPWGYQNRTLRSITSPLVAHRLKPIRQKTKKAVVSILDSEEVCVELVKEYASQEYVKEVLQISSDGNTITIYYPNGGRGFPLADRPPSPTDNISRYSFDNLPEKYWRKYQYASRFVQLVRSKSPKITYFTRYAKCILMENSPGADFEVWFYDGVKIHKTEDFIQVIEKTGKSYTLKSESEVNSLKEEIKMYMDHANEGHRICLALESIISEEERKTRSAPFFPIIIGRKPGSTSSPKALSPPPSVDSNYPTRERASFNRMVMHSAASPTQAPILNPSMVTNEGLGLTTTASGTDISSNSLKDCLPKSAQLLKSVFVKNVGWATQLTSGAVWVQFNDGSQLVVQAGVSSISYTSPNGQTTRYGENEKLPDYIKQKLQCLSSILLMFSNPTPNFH
Description: (§1) Curves were generated from the compound concentration and the corresponding percent (%) inhibition calculated for each concentration tested. For PLK4, we used the LanthaScreen Eu Kinase Binding Assay (Thermo Fisher Scientific, Carlsbad, CA, USA) that utilizes an Alexa Fluor conjugated “tracer” and an Eu-labeled anti-tag antibody to measure binding of a compound to the kinase target. For AURKs (AURKA, AURKB and AURKC) we used the Z’ LYTE Kinase Assay (Thermo Fisher Scientific, Carlsbad, CA, USA) that determines the differential sensitivity of phosphorylated and non-phosphorylated peptide substrates to proteolytic cleavage using a FRET-based readout.

AURKA = target: T2, AURKA (Homo sapiens, UniProt O14965); test: Z' LYTE Kinase Assay, 10-point IC50; assay type: biochemical; details: SelectScreen, 10-point titration
T2 sequence (O14965 1-403): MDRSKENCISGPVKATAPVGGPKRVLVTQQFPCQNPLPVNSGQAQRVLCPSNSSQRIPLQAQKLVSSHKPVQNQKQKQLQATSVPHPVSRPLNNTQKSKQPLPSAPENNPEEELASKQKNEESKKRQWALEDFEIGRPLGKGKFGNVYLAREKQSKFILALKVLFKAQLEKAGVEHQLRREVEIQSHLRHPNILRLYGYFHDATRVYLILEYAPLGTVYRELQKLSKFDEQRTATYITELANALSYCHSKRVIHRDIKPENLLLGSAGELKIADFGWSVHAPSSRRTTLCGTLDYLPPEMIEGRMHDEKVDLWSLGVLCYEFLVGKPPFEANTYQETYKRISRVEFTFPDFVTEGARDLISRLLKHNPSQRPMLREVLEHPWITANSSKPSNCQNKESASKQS
Description: as §1

AURKB = AURKB (Homo sapiens, UniProt Q96GD4); test: Z' LYTE Kinase Assay, 10-point IC50; assay type: biochemical; details: SelectScreen, 10-point titration
Sequence of AURKB (Q96GD4 whole entry): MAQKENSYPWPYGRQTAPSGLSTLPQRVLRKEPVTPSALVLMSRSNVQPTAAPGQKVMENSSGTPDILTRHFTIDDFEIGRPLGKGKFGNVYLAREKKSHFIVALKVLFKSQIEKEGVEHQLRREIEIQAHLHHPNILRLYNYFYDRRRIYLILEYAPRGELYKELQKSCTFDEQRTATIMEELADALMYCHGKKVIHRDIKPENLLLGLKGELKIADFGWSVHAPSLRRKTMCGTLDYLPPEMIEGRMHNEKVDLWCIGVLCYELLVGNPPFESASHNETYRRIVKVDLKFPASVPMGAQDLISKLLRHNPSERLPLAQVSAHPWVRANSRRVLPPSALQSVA
Description: as §1

AURKC = target: T3, AURKC (Homo sapiens, UniProt Q9UQB9); test: Z' LYTE Kinase Assay, 10-point IC50; assay type: biochemical; details: SelectScreen, 10-point titration
T3 sequence (Q9UQB9 1-309): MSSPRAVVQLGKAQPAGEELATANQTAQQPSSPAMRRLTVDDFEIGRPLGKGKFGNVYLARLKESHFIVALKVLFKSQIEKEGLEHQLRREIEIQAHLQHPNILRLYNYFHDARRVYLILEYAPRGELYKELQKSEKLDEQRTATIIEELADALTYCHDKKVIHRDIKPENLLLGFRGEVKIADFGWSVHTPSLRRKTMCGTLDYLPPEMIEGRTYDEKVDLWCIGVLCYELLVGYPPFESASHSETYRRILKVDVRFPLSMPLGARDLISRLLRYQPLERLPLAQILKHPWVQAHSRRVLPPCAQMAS
Description: as §1

BT-12 cells [1] = assay type: cell-based; details: Homo sapiens, BT-12, read-out: MTT: IC50 of the proliferation assay
BT-16 cells [2] = assay type: cell-based; details: BT-16, read-out: MTT: IC50 of the proliferation assay
DAOY cells [3] = assay type: cell-based; details: Homo sapiens, read-out: MTT: IC50 of the proliferation assay
D283 cells [4] = assay type: cell-based
BT-12 cells [5] = test: PrestoBlue Cell Viability assay; assay type: cell-based
Method: (§2) Cell viability was assessed using the Presto Blue™ Cell Viability reagent (Thermo Fisher Scientific, Carlsbad, CA, USA) following the manufacturer’s instructions. Cells were plated in 96-well plates at the same densities described above for the proliferation assay. The fluorescence was measured after 24, 48, 72, and 96 h at concentrations ranging from 0.001 to 10 µM of the inhibitor. All assays were performed in triplicate.

BT-16 cells [6] = test: PrestoBlue Cell Viability assay; assay type: cell-based
Method: as §2

D283 cells [7] = test: PrestoBlue Cell Viability assay; assay type: cell-based
Method: as §2

DAOY cells [8] = test: PrestoBlue Cell Viability assay; assay type: cell-based; details: Homo sapiens, read-out: PB: IC50 of the PrestoBlue Viability assay
Method: as §2

MON cells [9] = test: PrestoBlue Cell Viability assay; assay type: cell-based; details: read-out: PB: IC50 of the PrestoBlue Viability assay
Method: as §2

RT and MB cells [10] = test: Cell cycle analysis (PI flow cytometry); assay type: cell-based; details: for polyploidy: cell lines tested, concentration not given
Method: Cell cycle analysis was performed by flow cytometry of cells stained with Propidium Iodide (PI) (Thermo Fisher Scientific, Carlsbad, CA, USA) according to manufacturer’s instructions. Cells treated with the top PLK4i candidates and 0.1% DMSO (control) were fixed in 80% ethanol overnight, stained with PI, and then subjected to flow cytometric analysis using a BD Fortessa instrument (BD Biosciences, San Jose, CA, USA). Data was analyzed using Modfit LT from Verity Software House (Topsham, ME, USA). All experiments were performed in triplicate.

MON cells [11] = test: cells; details: read-out: MTT: IC50 of the proliferation assay
RT and MB cells [12] = test: Clonogenic colony formation assay; assay type: cell-based; details: 50nM
Method: All cell lines were seeded at 200 cells per well in six-well plates and incubated overnight. After 24 h, the treatment medium was added and changed once a week. Cells were treated with 0.01, 0.05, 0.1, 0.2, 0.5, 1, 5, and 10 µM of PLK4i and 0.1% DMSO as control. After 14 days, the cells were washed twice with 1x PBS, fixed with formalin, and stained with Cresyl violet (ACROS Organics, Pittsburgh, PA, USA). Colonies were counted using the ImageJ software (www.imagej.nih.gov, accessed on April 21, 2017).

RT and MB cells [13] = test: Beta-galactosidase senescence assay; assay type: cell-based; details: all cell lines
Method: Senescence was evaluated using the Beta-galactosidase assay (Senescence Cells Histochemical Staining Kit CS0030 (Sigma, St Louis, MO, USA) and clonogenic recovery assay as previously described.

[14] = D283, read-out: MTT: IC50 of the proliferation assay
[15] = Homo sapiens, BT-12; read-out: PB: IC50 of the PrestoBlue Viability assay
[16] = BT-16; read-out: PB: IC50 of the PrestoBlue Viability assay
[17] = D283, read-out: PB: IC50 of the PrestoBlue Viability assay
[18] = Homo sapiens, BT-12, read-out: PB: IC50 of the PrestoBlue Viability assay
[19] = BT-16, read-out: PB: IC50 of the PrestoBlue Viability assay

| SMILES | pIC50 (PLK4) | pIC50 (AURKA) | pIC50 (AURKB) | pIC50 (AURKC) | pIC50 (BT-12 cells [1]) | pIC50 (BT-16 cells [2]) | pIC50 (DAOY cells [3]) | pIC50 (D283 cells [4]; [14]) | pIC50 (BT-12 cells [5]; [15]) | pIC50 (BT-16 cells [6]; [16]) | pIC50 (D283 cells [7]; [17]) | pIC50 (DAOY cells [8]) | pIC50 (MON cells [9]) | polyploidy (RT and MB cells [10]) | pIC50 (MON cells [11]) | pIC50 (BT-12 cells [5]; [18]) | pIC50 (BT-16 cells [6]; [19]) | colony formation (RT and MB cells [12]) | cell senescence (beta-galactosidase) (RT and MB cells [13]) | other results |
| --- | --- | --- | --- | --- | --- | --- | --- | --- | --- | --- | --- | --- | --- | --- | --- | --- | --- | --- | --- | --- |
| COc1c(Nc2cc(C)[nH]n2)nc(Sc2ccc(S(=O)(=O)Cc3cccc([N+](=O)[O-])c3F)cc2F)nc1N1CCCCC1 [centrinone B] | 8.06 | 6.21 | 5.00 | 5.24 | 5.29 | 5.26 | < 5.00 | 5.91 | 5.20 | < 5.00 | 5.76 | < 5.00 | < 5.00 | did not induce polyploidy | < 5.00 | – | – | – | – | – |
| COc1cc(Nc2ncc3c(n2)-c2ccc(Cl)cc2C(c2c(F)cccc2OC)=NC3)ccc1C(=O)O [alisertib] | – | – | – | 8.03 | – | – | 6.47 | – | < 5.00 | < 5.00 | – | 7.51 | – | – | 6.45 | – | – | – | – | pIC50 (D283 cells [4]; D283; read-out: MTT: IC50 of the proliferation assay): 5.02; pIC50 (D283 cells [7]; D283; read-out: PB: IC50 of the PrestoBlue Viability assay): 5.04; pIC50 (MON cells [9]; MON): 6.67 |
| COc1cc2c(cc1F)C(c1ccccc1Cl)=Nc1c(n[nH]c1C)N2 [R1530] | 8.15 | 8.21 | 7.37 | 7.51 | < 5.00 | 5.41 | 6.08 | < 5.00 | < 5.00 | < 5.00 | < 5.00 | 5.73 | 5.43 | – | 5.49 | – | – | – | – | – |
| COc1ccc2c(c1)[C@]1(C[C@H]1c1ccc3c(/C=C/c4ccc(CN5C[C@@H](C)O[C@@H](C)C5)cc4)n[nH]c3c1)C(=O)N2 [CFI-400945, (1r,2s).2-(3-((e).4-(((cis).2,6-dimethylmorpholino)methyl)styryl). 1h.Indazol-6-yl)-5′-methoxyspiro[cyclopropane-1,3′-indolin]-2′-one] | – | – | – | – | – | – | – | – | – | – | 5.08 | 7.03 | 5.29 | – | – | 5.07 | 5.23 | – | – | – |
| COc1ccc2c(c1)/C(=C\c1ccc3c(/C=C/c4ccc(N5CCN(C)CC5)nc4)n[nH]c3c1)C(=O)N2 [CFI-400437] | 8.81 | 7.43 | 7.88 | 8.31 | 7.21 | 5.72 | 6.16 | < 5.00 | 6.22 | < 5.00 | 5.20 | 6.11 | 6.19 | – | 6.14 | – | – | complete inhibition of colony formation in all cell lines | induction of cell senescence | polyploidy (cell cycle analysis) (RT and MB cells [10]; 500 nM): induction of polyploidy |
| COc1c(Nc2cc(C)[nH]n2)nc(Sc2ccc(S(=O)(=O)Cc3cccc([N+](=O)[O-])c3F)cc2F)nc1N1CCOCC1 [centrinone] | – | 6.97 | 6.17 | 6.31 | – | – | – | – | – | – | – | 5.35 | 5.30 | did not induce polyploidy | – | 5.47 | 5.65 | complete inhibition of colony formation in all cell lines except the MB cell line DAOY and the RT cell line BT-16 | induction of cell senescence | polyploidy (cell cycle analysis) (RT and MB cells [10]; 1µM): no polyploidy |
